Data taken from patent US11667637B2, “Fused imidazo-piperidine JAK inhibitors” (THERAVANCE BIOPHARMA R&D IP, LLC, priority 2017, dated 2023).

Tests used:
[1] = system: IL-6 stimulated STAT3 phosphorylation in CD3+ T cells; assay: Inhibition of IL-6 stimulated pSTAT3 in CD3+ T cells; assay type: cell-based, human; details: statement in words
Excerpt: Assay 10: Cellular JAK Potency Assay: Inhibition of IL-6 Stimulated pSTAT3 in CD3+ T Cells
A protocol analogous to that of Assay 9 was used to determine the potency of the test compound for inhibition of interleukin-6 (IL-6) stimulated STAT3 phosphorylation. An Alexa Fluor 647 conjugated anti-pSTAT3 antibody (pY705, Clone 4/P, BD Biosciences) was used to detect STAT3 phosphorylation.

[2] = system: IL-5 mediated survival of human eosinophils; assay: IL-5 mediated eosinophil survival assay; assay type: cell-based; details: statement in words
Description: Assay 6: IL-5 Mediated Eosinophil Survival Assay
The potency of the test compound for IL-5 mediated eosinophil survival was measured in human eosinophils isolated from human whole blood (AllCells). Because IL-5 signals through JAK, this assay provides a measure of JAK cellular potency.
Human eosinophils were isolated from fresh human whole blood (AllCells) of healthy donors. Blood was mixed with 4.5% Dextran (Sigma-Aldrich) in a 0.9% sodium chloride solution (Sigma-Aldrich). Red blood cells were left to sediment for 35 minutes. The leukocyte rich upper layer was removed and layered over Ficoll-Paque (GE Healthcare) and centrifuged at 600 g for 30 minutes. The plasma and mononuclear cell layers were removed before the granulocyte layer was lysed with water to remove any contaminating red blood cells. […] Purity was analyzed using a LSRII flow cytometer (BD Biosciences). […]
After cytokine stimulation, cells were centrifuged at 300 g for 5 min and washed twice with cold DPBS (Life Technologies). To access viability and apoptosis, cells were incubated with Propidium Iodide (Thermo Fisher Scientific) and APC Annexin V (BD Biosciences) and analyzed using a LSRII flow cytometer (BD Biosciences). IC50 values were determined from analysis of the viability curves of percent cell viability vs compound concentration. Data are expressed as pIC50 (negative decadic logarithm IC50) values.

Row | SMILES | inhibition of IL-6 signaling [1] | inhibition of IL-5 mediated human eosinophil survival [2]
1 | CCCN1Cc2[nH]c(-c3n[nH]c4cc(-c5cc(F)c(O)cc5CC)ccc34)nc2C[C@H]1C(=O)N1C[C@@H]2C[C@H]1CN2C [Example 1, ((S)-2-(6-(2-ethyl-5-fluoro-4-hydroxyphenyl)-1H-indazol-3-yl)-5-propyl-4,5,6,7-tetrahydro-3H-imidazo[4,5-c]pyridin-6-yl)((1S,4S)-5-methyl-2,5-diazabicyclo-[2.2.1]heptan-2-yl)methanone] | inhibit IL-6 signaling | potently inhibit
2 | CCc1cc(O)c(F)cc1-c1ccc2c(-c3nc4c([nH]3)CN(C(C)C)[C@H](C(=O)N3CC[C@H](N(C)C)C3)C4)n[nH]c2c1 [Example 3] | inhibit IL-6 signaling | 
